The nature of data set [1]: SIF assay (stability in simulated intestinal fluid). In kind it is in vitro ADME. Particulars: simulated intestinal fluid (SIF) with pancreatin; simulated intestinal fluid, pH 6.8, pancreatin, 37° C., 20 μM. How it is done: SIF was prepared by adding 6.8 g of monobasic potassium phosphate and 10.0 g of pancreatin to 1.0 L of water. After dissolution, the pH was adjusted to 6.8 using NaOH. DMSO stocks (2 mM) were prepared for each of the opioid agonist peptides. Aliquots of the DMSO solutions were dosed into […], each containing 0.5 mL of SIF, which was pre-warmed to 37° C. The final opioid agonist peptide concentration was 20 μM. The vials were kept in a benchtop Thermomixer® for the duration of the experiment. At each timepoint (0, 5, 10, 20, 40, 60, or 360 minutes or 24 hours), 1.0 mL of acetonitrile containing 1% formic acid was added to one vial to terminate the reaction. Samples were stored at 4° C. until the end of the experiment. After the final timepoint was sampled, the tubes were mixed and then centrifuged at 3,000 rpm for 10 minutes. Aliquots of the supernatant were removed, diluted 1:1 into distilled water containing an internal standard, and analyzed by LCMS/MS. The percent of the opioid agonist peptide remaining at each timepoint was calculated based on the peak area response ratio of opioid agonist peptide to the internal standard. Time 0 was set to 100%, and all later timepoints were calculated relative to time 0. Half-lives were calculated by fitting to a first-order exponential decay equation using Graph pad.

A short description of data set [2]: Plasma assay (stability in mouse plasma). In kind it is in vitro ADME. The settings on record: 37° C. Here is the method:
Peptides of interest (20 uM) were incubated with pre-warmed mouse plasma (BioreclamationIVT) at 37° C. Aliquots were taken at various time points up to 24 hours (e.g. 0, 0.25, 1, 3, 6 and 24 hr), and immediately quenched with 4 volumes of organic solvent (acetonitrile/methanol (1:1) and 0.1% formic acid, containing 1 μM internal standard). Quenched samples were stored at 4° C. until the end of the experiment and centrifuged at 17,000 g for 15 minutes. The supernatant was diluted 1:1 with deionized water and analyzed using LC-MS. Percentage remaining at each time point was calculated based on the peak area ratio (analyte over internal standard) relative to the initial level at time zero. Half-lives were calculated by fitting to a first-order exponential decay equation using Graph Pad Prism.

Data set [3] in a line: SGF assay (stability in simulated gastric fluid). In kind it is in vitro ADME. Particulars: pig, simulated gastric fluid (SGF) with porcine pepsin, pH 2, pepsin, 37° C. How it is done: SGF was prepared by adding 20 mg NaCl, 32 mg porcine pepsin (MP Biochemicals, catalog 02102599), and 70 μl HCl to 10 ml water (final pH=2). Aliquots of SGF (0.5 ml each) were pre-warmed at 37° C. To start the reaction, 1 μl of opioid agonist peptide stock solution (10 mM in DMSO) was added to 0.5 ml SGF and thoroughly mixed such that the final peptide concentration was 20 μM. The reactions were incubated at 37° C. with gentle shaking.
At each timepoint (0, 15, 30, 60 min) 50 µl aliquots were removed and added to 200 ul of acetonitrile containing 0.1% formic acid to quench the reaction. Samples were stored at 4° C. until the end of the experiment and centrifuged at 10,000 rpm for 5 minutes. Aliquots of the supernatant were removed, diluted 1:1 into distilled water containing internal standard, and analyzed by LCMS/MS. The percent of the opioid agonist peptide remaining at each timepoint was calculated based on the peak area response ratio of the opioid agonist peptide to the internal standard. Time 0 was set to 100%, and all later timepoints were calculated relative to time 0. Half-lives were calculated by fitting to a first-order exponential decay equation using GraphPad.

A further data set addresses T1, δ-opioid receptor (DOR) (Homo sapiens, UniProt P41143).
T1 construct: host or cells: cAMP Hunter CHO-K1 OPRD1 Gαi cell line
As to the kind of experiment: DOR agonist cAMP assay (HitHunter cAMP, forskolin-stimulated). In kind it is cell-based. Put shortly:
(§1)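 CHO-K1 Gαi cells expressing OPRM1 or OPRD1 were exposed 30 min at 37° C to 11-point threefold agonist dilutions, in duplicate, with 20 uM forskolin final. cAMP quantified by EFC chemiluminescent competitive immunoassay against cAMP standards. EC50 by four-parameter Hill nonlinear regression.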
A general note: Changes in cAMP serve as a functional read-out for many G protein-coupled receptors.

The next data set has as its target T2, μ-opioid receptor (MOR) (Homo sapiens, UniProt P35372).
T2 construct: host or cells: cAMP Hunter CHO-K1 OPRM1 Gαi cell line
Description: MOR agonist cAMP assay (HitHunter cAMP, forskolin-stimulated). In kind it is cell-based. Put shortly:
as §1

The structures appear in SMILES notation. Where only a bound is given, the exact number is not on record here.

T1 sequence (P41143 whole entry): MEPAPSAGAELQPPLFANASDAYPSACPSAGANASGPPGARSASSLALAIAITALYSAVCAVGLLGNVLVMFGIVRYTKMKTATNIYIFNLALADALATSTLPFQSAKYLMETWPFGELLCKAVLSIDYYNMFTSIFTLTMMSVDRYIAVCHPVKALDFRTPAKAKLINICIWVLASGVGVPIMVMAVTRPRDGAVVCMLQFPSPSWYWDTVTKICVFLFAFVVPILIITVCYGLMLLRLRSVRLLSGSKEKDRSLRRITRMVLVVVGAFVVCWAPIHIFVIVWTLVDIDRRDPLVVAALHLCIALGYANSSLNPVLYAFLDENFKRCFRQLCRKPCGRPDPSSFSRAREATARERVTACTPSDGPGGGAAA
T2 sequence (P35372 whole entry): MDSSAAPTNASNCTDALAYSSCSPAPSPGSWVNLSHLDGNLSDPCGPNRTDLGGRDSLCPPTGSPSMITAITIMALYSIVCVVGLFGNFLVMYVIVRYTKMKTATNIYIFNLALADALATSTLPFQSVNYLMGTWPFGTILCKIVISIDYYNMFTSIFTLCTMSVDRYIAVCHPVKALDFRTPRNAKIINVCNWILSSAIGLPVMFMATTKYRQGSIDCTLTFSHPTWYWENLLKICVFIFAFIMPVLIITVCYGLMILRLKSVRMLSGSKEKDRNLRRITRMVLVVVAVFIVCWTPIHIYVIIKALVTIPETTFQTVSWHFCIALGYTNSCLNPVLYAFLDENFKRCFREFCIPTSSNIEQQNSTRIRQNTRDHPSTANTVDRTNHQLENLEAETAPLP

For `CCCC[C@H](NC(=O)[C@H](Cc1ccccc1)NC(=O)CNC(=O)[C@@H](C)NC(=O)[C@@H](N)Cc1c(C)cc(O)cc1C)C(N)=O` [compound 37], the half-life at 20 μM was at most 0.167 h in data set [1] and 0.167 to 6 h in data set [3]. Further, the half-life at 20 uM in data set [2] lay in the range of 6 to 24 h.

`Cc1cc(O)cc(C)c1C[C@H](N)C(=O)N[C@H](C)C(=O)NCC(=O)N[C@H](CC(=O)N(C)CC(N)=O)Cc1ccccc1` [compound 43]: the EC50 at δ-opioid receptor (DOR) is below 1 nM. Besides, the results for the half-life at 20 μM in data set [1] and in data set [3] were 6 to 24 h and above 24 h, respectively. The molecule also returned a half-life at 20 uM in data set [2] of 6 to 24 h.

`Cc1cc(O)cc(C)c1C[C@H](N)C(=O)N[C@H](CC(=O)O)C(=O)NCC(=O)N[C@H](CC(=O)N(C)CC(N)=O)Cc1ccccc1` [compound 83]: the EC50 on δ-opioid receptor (DOR) and on μ-opioid receptor (MOR) was below 1 nM in each case. In addition, the half-life at 20 μM in data set [1] and in data set [3] was above 24 h each time. The half-life at 20 uM in data set [2] is above 24 h.

As usually defined, the half-life is the time in which the quantity being followed falls by half. In general, EC50 refers to the concentration giving half of the maximal effect. Read a high EC50 as a less potent agent.

(Values after patent US10278957B2, “Opioid agonist peptides and uses thereof” (Protagonist Therapeutics, Inc., priority 2017, dated 2019).)
